Laboratory results from patent EP2310009B1, “PARENTERAL AND ORAL FORMULATIONS OF BENZIMIDAZOLES” (UNIVERSITY OF HOUSTON, priority 2008, dated 2010).

Columns and labels:
human plasma protein = settings: cited from earlier work
[1] = Mebendazole release from SNEDDS, SEDDS, cosolvent and unformulated suspension; format: physicochemical; settings: 60 minutes; unformulated drug in release media with placebo SNEDDS
Description: Each point represents the mean ± SD of three independent determinations.
The asterisk* depicts significance between groups compared after analysis by ANOVA using Tukey's post-hoc test, at a threshold of significance at p<0.05.

For `COC(=O)Nc1nc2ccc(C(=O)c3ccccc3)cc2[nH]1` [MZ, methyl 5-benzoylbenzimidazole-2-carbamate], the “drug bound to human plasma protein” value (human plasma protein) is listed as “about 90%” and the “extent of drug release” value [1] is listed as 1.10%.
